Source: PMC11545984, “1,3-Dipolar Cycloaddition of Nitrile Oxides and Nitrilimines to (−)-β-Caryophyllene: Stereoselective Synthesis of Polycyclic Derivatives and Their Biological Testing” (International Journal of Molecular Sciences, 2024)
Marks after values point to notes of the source that are not given here.

Legend:
[1] = tested on: influenza virus A/Puerto Rico/8/34 (H1N1); assay: Antiviral (cytoprotective) activity in MDCK cells, MTT; assay type: cell-based; details: H1N1; infected MDCK cells, m.o.i. 0.01, 48 h, 50% cell protection; read-out: IC50
[2] = tested on: DU145; assay: Initial cytotoxicity testing (MTT test), DU145; assay type: cell-based, human; details: for cytotoxicity DU145: human cancer cell line, MTT, 72 h, two concentrations 50–100 µM; for IC50: Homo sapiens, DU-145, 72 h, read-out: cytotoxicity DU145
Description: (§1) Colon cancer (HCT116, HT29), breast cancer (MCF7, SKBR3), melanoma (SK-MEL28), lung cancer (A549), prostate cancer (DU145), human normal cells (VA-13 and HEK293), and murine mammary cell lines (EMT6) were purchased from ATCC (Manassas, VA, USA). Cells were routinely grown in RPMI 1640 culture medium, supplemented with 10% fetal bovine serum, glutamine, and 100 U/mL penicillin. HCT116, HT29, MCF7, SKBR3, SK-MEL28, A549, DU145, VA-13, HEK293, and EMT6 cells were grown in flasks in RPMI 1640 fresh culture medium with supplements at 37 °C and 5% CO2. Cells were grown as monolayer cultures, and the cells in the exponential growth phase were trypsinized and suspended in the supplemented RPMI 1640 medium.
(§2) To evaluate the cytotoxicity of the compounds, we placed cells in (20–30) × 10^3 cells/mL concentrations in 96-well culture plates for 24 h. Cells were counted after treatment with Trypan blue solution (0.4%). They were then exposed to two different concentrations of compounds 16–30 (50–100 µM) dilutions in pre-incubated cells at 37 °C for 72 h. In control wells with untreated cells, only (DMSO + PBS) was added. Cell viability was measured by the standard MTT test. The stock solutions of each compound were prepared in DMSO following by preparation of serial dilutions in PBS.
(§3) The absorbance was measured at 540 nm using a Multiskan™ FC microplate photometer and the Skanlt software 6.1 RE for microplate reader, both from Thermo Scientific (Waltham, MA, USA). Experiments were carried out in triplicate; to perform the statistical analysis, more concentrations should be evaluated.

[3] = tested on: A549; assay: Initial cytotoxicity testing (MTT test), A549; assay type: cell-based, human; details: for cytotoxicity A549: human cancer cell line, MTT, 72 h, two concentrations 50–100 µM; for IC50: Homo sapiens, A549, 72 h, read-out: cytotoxicity A549
Description: as §1, §2, §3

[4] = tested on: VA-13; assay: Initial cytotoxicity testing (MTT test), VA-13; assay type: cell-based, human; details: human healthy cells, MTT, 72 h, two concentrations 50–100 µM
Description: as §1, §2, §3

[5] = tested on: HEK293; assay: Initial cytotoxicity testing (MTT test), HEK293; assay type: cell-based, human; details: human healthy cells, MTT, 72 h, two concentrations 50–100 µM
Description: as §1, §2, §3

[6] = tested on: EMT6; assay: Initial cytotoxicity testing (MTT test), EMT6; assay type: cell-based, murine; details: for cytotoxicity EMT6: murine mammary cell line, MTT, 72 h, two concentrations 50–100 µM
Description: as §1, §2, §3

[7] = tested on: DU145, A549, VA-13, HEK293, EMT6; assay: Initial cytotoxicity testing (MTT test), all cell lines together; assay type: cell-based
Description: as §1, §2, §3

[8] = tested on: HCT116; assay: IC50 determination (MTT test), HCT116; assay type: cell-based, human; details: 72 h; for IC50: Homo sapiens, HCT-116, colon cancer; for IC50 HCT116: colon cancer
Description: as §1
(§4) To evaluate the cytotoxicity of the SDE-series in vitro, we placed cells in (15–30) × 10^3 cells/mL concentrations in 96-well culture plates for 24 h. Cells were counted after treatment with Trypan blue solution (0.4%). After 24 h, the cells were exposed to six tested concentrations of SDE-series (50–1.5 µM) dilutions to pre-incubated cells at 37 °C for 72 h. In control wells with untreated cells, only (DMSO + PBS) was added. Cell viability was measured by the standard MTT test. The absorbance was measured at 540 nm using a Multiskan™ FC microplate photometer and the Skanlt software 6.1 RE for microplate reader, both from Thermo Scientific (Waltham, MA, USA). In vitro experiments were carried out in triplicate. GraphPad prism version 9.0 was used to determine the IC50. The IC50 data are presented as mean (±) standard deviation (SD).

[9] = tested on: HT-29; assay: IC50 determination (MTT test), HT-29; assay type: cell-based; details: Homo sapiens, colon cancer, 72 h
Description: as §1, §4

[10] = tested on: MCF7; assay: IC50 determination (MTT test), MCF7; assay type: cell-based; details: Homo sapiens, breast cancer, 72 h
Description: as §1, §4

[11] = tested on: SKBR3; assay: IC50 determination (MTT test), SKBR3; assay type: cell-based; details: Homo sapiens, SK-BR-3, breast cancer, 72 h
Description: as §1, §4

[12] = tested on: SK-MEL-28; assay: IC50 determination (MTT test), SK-MEL-28; assay type: cell-based, human; details: 72 h; for IC50: Homo sapiens, SK-MEL-28, melanoma; for IC50 SK-MEL-28: melanoma
Description: as §1, §4

[13] = tested on: A549; assay: IC50 determination (MTT test), A549; assay type: cell-based; details: Homo sapiens, lung cancer, 72 h
Description: as §1, §4

[14] = tested on: DU145; assay: IC50 determination (MTT test), DU145; assay type: cell-based; details: Homo sapiens, DU-145, prostate cancer, 72 h
Description: as §1, §4

[15] = tested on: HEK-293; assay: IC50 determination (MTT test), HEK-293; assay type: cell-based; details: Homo sapiens, HEK293, normal cells, 72 h
Description: as §1, §4

[16] = in vitro; details: dog
[17] = tested on: a variety of cancer cell lines; assay: IC50 determination (MTT test), variety of cancer cell lines; assay type: cell-based; details: Homo sapiens, 72 h, read-out: IC50 range on a variety of cancer cell lines
Description: as §1
as §4, with “In vitro experiments were carried out in triplicate. GraphPad prism version 9.0 was used to determine the IC50. The IC50 data are presented as mean (±) standard deviation (SD).” left out

[18] = Initial cytotoxicity testing (MTT test), VA-13; assay type: cell-based, human; details: human healthy cells, MTT, 72 h, two concentrations 50–100 µM
Description: as §1, §2, §3

[19] = Initial cytotoxicity testing (MTT test), HEK293; assay type: cell-based, human; details: human healthy cells, MTT, 72 h, two concentrations 50–100 µM
Description: as §1, §2, §3

[20] = tested on: influenza virus A/Puerto Rico/8/34 (H1N1); assay: Time-of-addition experiment in MDCK cells; assay type: cell-based; details: m.o.i. 10, addition from -2 h to 6 hpi

Structure (SMILES) | IC50 [1] [µM] | cytotoxicity DU145 [2] | cytotoxicity A549 [3] | cytotoxicity VA-13 [4] | cytotoxicity HEK293 [5] | cytotoxicity EMT6 [6] | toxicity to all cells [7] | IC50 [8] [µM] | IC50 [9] [µM] | IC50 [10] [µM] | IC50 [11] [µM] | IC50 [12] [µM] | IC50 [13] [µM] | IC50 [14] [µM] | IC50 [15] [µM] | CC50 at 48 h [16] [µM] | IC50 [2] [µM] | IC50 [3] [µM] | IC50 at 72 h [18] [µM] | IC50 at 72 h [19] [µM] | further results
COc1ccc(C2=NO[C@]3(CC/C=C(\C)CC[C@@H]4[C@@H]3CC4(C)C)C2)cc1 [Compound 17a, (1S,2R,9R,E)-3′-(4-Methoxyphenyl)-6,10,10-trimethyl-4′H-spiro[bicyclo [7.2.0]undecane-2,5′-isoxazol]-5-ene] | 8.03 ± 1.1 | + * | + * | + * | + * | + * | extremely toxic, killing all cells within 48 h | 39.4 ± 2.8 | 47.1 ± 3 | > 50 | 36.5 ± 3.2 | 38.9 ± 3.9 | 30.7 ± 2.1 | 42.6 ± 3.4 | 44.3 ± 4.1 | 37 ± 2.2 | – | – | – | – | –
CC1=CCCC2(CC(C)=NN2c2ccccc2)C2CC(C)(C)C2CC1 [Compound 21a, (1S,2R,9R,E)-5′,6,10,10-Tetramethyl-2′-phenyl-2′,4′-dihydrospiro[bicyclo [7.2.0]undecane-2,3′-pyrazol]-5-ene] | 6.25 ± 0.7 | + * | + * | + * | + * | + * | extremely toxic, killing all cells within 48 h | 22.4 ± 0.8 | 39.4 ± 2.1 | > 50 | 12.3 ± 1 | 24.9 ± 1.3 | 21.2 ± 0.9 | 18.8 ± 0.4 | 14.2 ± 0.9 | 28 ± 1.9 | – | – | – | – | IC50 [17]: 12.3 to 39.4 µM
COc1cccc(OC)c1C1=NN(c2c(Cl)cc(Cl)cc2Cl)[C@]2(CC/C=C(\C)CC[C@@H]3[C@@H]2CC3(C)C)C1 [Compound 23a, (1S,2R,9R,E)-5′-(2,6-Dimethoxyphenyl)-6,10,10-trimethyl-2′-(2,4,6-trichlorophenyl)-2′,4′-dihydrospiro[bicyclo [7.2.0]undecane-2,3′-pyrazol]-5-ene] | > 5.59 | – | – | – | – | + * | – | > 50 | 45 ± 1.9 | > 50 | > 50 | > 50 | 33.4 ± 2.2 | 28.8 ± 1.2 | 39.2 ± 3 | 10.2 ± 0.8 | < 50 | < 50 | < 50 | < 50 | toxicity against EMT6 ([6]; initial testing): extremely toxic; IC50 ([7]; after 72 h, read-out: IC50 on all cells): < 50 µM; IC50 HCT116 [8]: did not show any cytotoxic effects; IC50 SK-MEL-28 [12]: did not show any cytotoxic effects
CC1(C)C[C@H]2[C@H]1CC[C@]1(C)ON=C(c3ccc(Cl)cc3)[C@H]1CC[C@@]21CC(c2ccc(Cl)cc2)=NO1 [Compound 25, (3aR,6R,6aS,8aR,10aS)-3,3′-Bis(4-chlorophenyl)-8,8,10a-trimethyl-3a,4,5,6a,7,8,8a,9,10,10a-decahydro-4′H-spiro[cyclobuta [5,6]cyclonona [1,2-d]isoxazole-6,5′-isoxazole]] | 34.1 ± 4.4 | – | – | – | – | – | – | > 50 | > 50 | > 50 | > 50 | > 50 | > 50 | > 50 | > 50 | 426 ± 26.9 | 50 to 100 | 50 to 100 | > 50 | > 50 | latest time of addition with virus-inhibiting activity [20]: ≤ 6 hpi; toxicity to DU145 ([2]; initial testing): harmful; toxicity to A549 ([3]; initial testing): harmful; IC50 HCT116 [8]: did not show any cytotoxic effects; IC50 SK-MEL-28 [12]: did not show any cytotoxic effects
